According to publication PMC6982876, “Synthesis of Novel Benzodifuranyl; 1,3,5-Triazines; 1,3,5-Oxadiazepines; and Thiazolopyrimidines Derived from Visnaginone and Khellinone as Anti-Inflammatory and Analgesic Agents” (Molecules, 2020):
Marks after values point to notes of the source that are not given here.

Assays:
ovine COX-1 = biological target: T1, ovine COX-1 (Ovis aries, UniProt P05979); assay: In vitro COX inhibitor screening assay (EIA kit, Cayman), COX-1; type: biochemical; conditions: mean of two determinations, enzyme kit, read-out: COX1 IC50
T1 construct: purchased Cayman Chemical, Ann Arbor, MI, USA 560131
T1 sequence (P05979 25-600): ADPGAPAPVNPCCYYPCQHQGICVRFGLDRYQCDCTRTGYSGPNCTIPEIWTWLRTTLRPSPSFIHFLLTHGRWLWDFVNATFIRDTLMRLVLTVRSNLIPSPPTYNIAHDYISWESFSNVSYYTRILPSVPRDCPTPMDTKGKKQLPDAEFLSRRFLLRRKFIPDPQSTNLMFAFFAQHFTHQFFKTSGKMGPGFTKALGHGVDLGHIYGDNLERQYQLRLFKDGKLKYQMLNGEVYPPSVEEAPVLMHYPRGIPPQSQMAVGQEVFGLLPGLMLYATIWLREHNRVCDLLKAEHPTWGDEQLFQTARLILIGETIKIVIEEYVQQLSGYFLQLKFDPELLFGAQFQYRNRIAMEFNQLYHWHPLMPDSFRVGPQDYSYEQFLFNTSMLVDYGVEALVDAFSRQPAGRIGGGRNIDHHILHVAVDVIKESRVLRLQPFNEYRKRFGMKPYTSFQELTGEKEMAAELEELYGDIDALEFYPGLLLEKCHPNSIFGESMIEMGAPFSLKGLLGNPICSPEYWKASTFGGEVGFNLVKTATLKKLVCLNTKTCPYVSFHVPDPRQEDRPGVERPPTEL
Description: (§1) Furthermore, the selectivity index for COX-2 (COX-1 IC50 / COX-2 IC50) was calculated for the compounds.

[1] = tested on: acetic acid-induced writhing in mice; assay: Acetic acid-induced writhing test (analgesic activity); type: in vivo; conditions: 10 mg/kg p.o., n = 5; for Writhing Number in 20 min (Mean ± SEM): acetic acid 1 h after dosing; for Analgesic Activity (% protection): writhing test
Description: The analgesic activity of the compounds was performed using the writhing test as described by Gawade et al.. Mice weight ranged from 25 to 30 g. Then, mice were divided into 18 different groups, each containing five animals. The animals fasted for 8 h before the experiment. Administration of the compounds (10 mg/kg, p.o.) was performed orally. Equal doses of diclofenac as the reference drug and saline as a negative control were also administrated orally. Writhing was induced one hour after compound administration by using 0.1 mL of 1% glacial acetic acid at a volume of 0.1 mL/10 g body weight. The number of writhing responses (stretching of the abdomen, extension of hind limbs, twisting of the trunk, and elongation of the body) observed was counted for 20 min. The protection percentile against acetic acid-induced writhing was calculated according to the following formula: (1) Analgesic activity (%) =n−n′/n×100* where n is the mean number of writhes of the control group, and n’ is the mean number of writhes of the tested compound group.

human recombinant COX-2 = biological target: T2, human recombinant COX-2 (Homo sapiens, UniProt P35354); assay: In vitro COX inhibitor screening assay (EIA kit, Cayman), COX-2; type: biochemical; conditions: for COX2 (SI) selectivity index: COX-1 IC50 / COX-2 IC50; for IC50: COX-2, mean of two determinations, enzyme kit, read-out: COX2 IC50
T2 construct: purchased Cayman Chemical, Ann Arbor, MI, USA 560131
T2 sequence (P35354 18-604): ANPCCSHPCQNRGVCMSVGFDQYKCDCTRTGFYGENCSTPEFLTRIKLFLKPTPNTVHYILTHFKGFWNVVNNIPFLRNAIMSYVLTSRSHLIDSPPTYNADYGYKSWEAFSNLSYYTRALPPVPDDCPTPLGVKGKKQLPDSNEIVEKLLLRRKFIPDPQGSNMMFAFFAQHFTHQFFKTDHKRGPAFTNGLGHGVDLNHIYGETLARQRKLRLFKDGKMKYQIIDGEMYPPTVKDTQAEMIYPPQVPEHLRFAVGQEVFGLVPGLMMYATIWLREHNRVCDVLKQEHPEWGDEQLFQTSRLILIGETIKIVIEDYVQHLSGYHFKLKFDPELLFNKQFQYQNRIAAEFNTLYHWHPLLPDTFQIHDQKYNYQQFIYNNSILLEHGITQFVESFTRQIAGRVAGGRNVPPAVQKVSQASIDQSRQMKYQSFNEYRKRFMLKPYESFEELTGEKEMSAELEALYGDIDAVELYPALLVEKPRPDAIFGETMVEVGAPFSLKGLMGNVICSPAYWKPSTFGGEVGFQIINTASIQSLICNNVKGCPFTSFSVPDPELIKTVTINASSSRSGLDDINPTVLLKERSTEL
Description: as §1

[2] = tested on: carrageenan-induced paw edema in rats; assay: Carrageenan-induced paw edema (anti-inflammatory activity); type: in vivo; conditions: 10 mg/kg oral; for % Change in Paw Height (Mean ± SEM): n = 5
Description: Albino rats (150–180 g) were used. The rats were divided into 11 experimental groups of five rats each. One hour after oral administration of the compounds (10 mg/kg), 0.1 mL of 1% carrageenan solution was injected in the left hind paw of each animal. Rat paw volumes were measured with a digital caliber plethysmometer (UGO Basile, Varese, Italy) used to measure inflammation height at 0, 1, 2, and 3 h after carrageenan injection. The percentage increase in inflammation in the left hind paw, in comparison to the uninjected right hind paw, was determined, calculated, and expressed as the amount of inflammation. […] The anti-inflammatory activity of the selected analgesic compounds after 3 h was expressed as percentage inhibition of edema, which was calculated according to the following equation: (2) Inhibition of edema (%) =Vcont−Vtest/Vcont×100* where V cont is the edema volume in the control group, and V test is the edema volume in the group of the screened compound.

Row | Compound | IC50 (ovine COX-1) [µM] | Writhing Number in 20 min (Mean ± SEM) [1] | Analgesic Activity (% protection) [1] [%] | COX2 (SI) selectivity index (human recombinant COX-2) | IC50 (human recombinant COX-2) [µM] | % Change in Paw Height (Mean ± SEM) ([2]; 1 hr after carrageenan) | % Change in Paw Height (Mean ± SEM) ([2]; 2 hr after carrageenan) | Anti-Inflammatory Activity (% Inhibition of Edema) ([2]; 3 hr after carrageenan) [%] | % Change in Paw Height (Mean ± SEM) ([2]; 3 hr after carrageenan) | melting point [°C]
1 | COc1c2ccoc2cc2oc(C(Cl)=Nc3cc(Cl)nc(SC)n3)c(C)c12 [Compound 9a, N-(6-chloro-2-(methylthio)pyrimidin-4-yl)-4-methoxy-3-methylbenzo [1,2-b: 5,4-b`] difuran-2-carbimidoyl chloride] | 12 | 45 ± 2.4 ^a,b | 30 ± 1.05 | 70 | 0.17 | 0.35 ± 0.01 ^a % | 0.28 ± 0.02 ^a % | 45 | 0.33 ± 0.02 ^a % | > 350
2 | COc1c2occc2c(OC)c2c(C)c(C(=O)Nc3cc(=O)[nH]c(SCC(=O)O)n3)oc12 [Compound 6b, 2-((4-(4,8-dimethoxy-3-methylbenzo [1,2-b: 5,4-b`]difuran-2-carboxamido)-6-oxo-1,6-dihydropyrimidin-2-yl)thio) acetic acid] | 17.1 | 49 ± 1.2 ^a,b | 26 ± 0.80 | 55 | 0.311 | 0.38 ± 0.03 ^a % | 0.31 ± 0.04 ^a % | 38 | 0.39 ± 0.01 ^a % | 293 to 295
3 | COc1c2occc2c(OC)c2c(C)c(C(=O)Nc3cc(=O)[nH]c(=S)[nH]3)oc12 [Compound 5b, 4,8-dimethoxy-3-methyl-N-(6-oxo-2-thioxo-1,2,3,6-tetrahydropyrimidin-4-yl) benzo [1,2-b: 5,4-b`] difuran-2-carboxamide] | 17.9 | 52 ± 1.4 ^a,b | 23 ± 0.70 | 50 | 0.36 | 0.42 ± 0.04 ^a % | 0.34 ± 0.01 ^a % | 30 | 0.44 ± 0.03 ^a % | 266 to 268
4 | COc1c2occc2c(OC)c2c(C)c(C(=O)Nc3cc(=O)n4c(n3)SCC4=O)oc12 [Compound 7b, N-(3,5-dioxo-2,3-dihydro-5H-thiazolo[3,2-a]pyrimidin-7-yl)-4,8-dimethoxy-3-methylbenzo [1,2-b:5,4-b`]difuran-2-carboxamide] | 7.18 | – | 35 ± 1.14 | 80 | 0.09 | 0.30 ± 0.02 ^a % | 0.25 ± 0.01 ^a % | 52 | 0.29 ± 0.01 ^a % | 327 to 329
